# Laboratory results reported in ChEMBL document CHEMBL1201862, “PubChem BioAssay data set” (2004).
#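 Cultured in 96-well plates, cells were exposed to test compound for 48 hours across five concentrations. At the GI50, growth is halved.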 The source made the active and inactive calls. No stated cut-off is given here; in the data, active = GI50 up to about 1.1 µM and inactive = higher.
# Legend:
# Assay in all cases: inhibition of tumour cell growth, NCI panel, 48 h
# MOLT-4 = system: MOLT-4
# HOP-62 = system: HOP-62
# KM12 = system: KM12
# UACC-257 = system: UACC-257
# CCRF-CEM = system: CCRF-CEM
# NCI-H522 = system: NCI-H522
# OVCAR-8 = system: OVCAR-8
# DU-145 = system: DU-145
# SK-MEL-28 = system: SK-MEL-28
# UACC-62 = system: UACC-62
# HT-29 = system: HT-29
# SF-268 = system: SF-268
# SF-539 = system: SF-539
# OVCAR-4 = system: OVCAR-4
# SK-MEL-2 = system: SK-MEL-2
# MDA-MB-435 = system: MDA-MB-435
# Malme-3M = system: Malme-3M
# SK-MEL-5 = system: SK-MEL-5
# HCT-15 = system: HCT-15
# HCT-116 = system: HCT-116
Compound,GI50 (MOLT-4),GI50 (HOP-62),GI50 (KM12),GI50 (UACC-257),GI50 (CCRF-CEM),GI50 (NCI-H522),GI50 (OVCAR-8),GI50 (DU-145),GI50 (SK-MEL-28),GI50 (UACC-62),GI50 (HT-29),GI50 (SF-268),GI50 (SF-539),GI50 (OVCAR-4),GI50 (SK-MEL-2),GI50 (MDA-MB-435),GI50 (Malme-3M),GI50 (SK-MEL-5),GI50 (HCT-15) [µM],GI50 (HCT-116)
O=C(CCc1ccc(O)cc1)NCCc1cccc(OCc2ccccc2)c1,14 µM (inactive),29.6 µM (inactive),25.4 µM (inactive),17.6 µM (inactive),2.96 µM (inactive),32.9 µM (inactive),26.2 µM (inactive),30.8 µM (inactive),22.7 µM (inactive),14.1 µM (inactive),19.5 µM (inactive),26.5 µM (inactive),16.5 µM (inactive),31.6 µM (inactive),17.3 µM (inactive),18.1 µM (inactive),27.7 µM (inactive),17.4 µM (inactive),29,21.8 µM (inactive)
CCCCn1cnnc1NS(=O)(=O)c1cc(C)c(Cl)cc1SCC(=O)O,> 10 µM (inactive),> 10 µM (inactive),> 10 µM (inactive),> 10 µM (inactive),> 10 µM (inactive),> 10 µM (inactive),> 10 µM (inactive),> 10 µM (inactive),> 10 µM (inactive),> 10 µM (inactive),> 10 µM (inactive),> 10 µM (inactive),> 10 µM (inactive),> 10 µM (inactive),> 10 µM (inactive),> 10 µM (inactive),> 10 µM (inactive),> 10 µM (inactive),> 10,> 10 µM (inactive)
CSC1=NN(C(C)=O)C(C(OC(C)=O)C(OC(C)=O)C(OC(C)=O)C(COC(C)=O)OC(C)=O)S1 (stereo unspecified),> 100 µM (inactive),> 100 µM (inactive),> 100 µM (inactive),> 100 µM (inactive),> 100 µM (inactive),> 100 µM (inactive),> 100 µM (inactive),> 100 µM (inactive),> 100 µM (inactive),> 100 µM (inactive),> 100 µM (inactive),> 100 µM (inactive),> 100 µM (inactive),> 100 µM (inactive),> 100 µM (inactive),> 100 µM (inactive),> 100 µM (inactive),> 100 µM (inactive),> 100,> 100 µM (inactive)
CC(C)(C)c1cc(C(=O)/C=C/c2c(Cl)cccc2Cl)cc(C(C)(C)C)c1O,6.85 µM (inactive),20 µM (inactive),13.1 µM (inactive),5.6 µM (inactive),4.04 µM (inactive),5.57 µM (inactive),18.9 µM (inactive),23 µM (inactive),19.4 µM (inactive),12.8 µM (inactive),10.2 µM (inactive),18.8 µM (inactive),16.1 µM (inactive),28.7 µM (inactive),11.9 µM (inactive),15.5 µM (inactive),18.6 µM (inactive),11.4 µM (inactive),12.4,8.83 µM (inactive)
COc1ccc2c(c1)[n+]([O-])c(C#N)c(N1CCN(c3ccc([N+](=O)[O-])cc3)CC1)[n+]2[O-],,4.24 µM (inactive),6.87 µM (inactive),4.42 µM (inactive),1.92 µM (inactive),1.81 µM (inactive),2.09 µM (inactive),8.22 µM (inactive),16.3 µM (inactive),3.76 µM (inactive),> 22.4 µM (inactive),2.91 µM (inactive),2.21 µM (inactive),3.94 µM (inactive),> 57.4 µM (inactive),5.13 µM (inactive),2.64 µM (inactive),3.59 µM (inactive),3.16,3.66 µM (inactive)
O=C(/C=C/c1ccccc1O)CC(=O)/C=C/c1ccccc1O,3.78 µM (inactive),11.8 µM (inactive),6.4 µM (inactive),10.3 µM (inactive),3.1 µM (inactive),3.72 µM (inactive),4.41 µM (inactive),14.5 µM (inactive),12.8 µM (inactive),4.93 µM (inactive),1.84 µM (inactive),> 10 µM (inactive),5.9 µM (inactive),15.1 µM (inactive),8.79 µM (inactive),4.38 µM (inactive),11.7 µM (inactive),5.32 µM (inactive),3.64,2.38 µM (inactive)
COc1cc(/C=C/c2cc(=O)cc(/C=C/c3ccc(O)c(OC)c3)o2)ccc1O,,22 µM (inactive),> 38.3 µM (inactive),> 100 µM (inactive),0.324 µM (active),9.79 µM (inactive),46.2 µM (inactive),31 µM (inactive),> 100 µM (inactive),44.1 µM (inactive),> 80.4 µM (inactive),38 µM (inactive),> 62.5 µM (inactive),16.4 µM (inactive),41.2 µM (inactive),35.5 µM (inactive),> 69.5 µM (inactive),13.6 µM (inactive),60.4,> 55.5 µM (inactive)
CCOP(=O)(O)C(Nc1ccc(/N=N/c2ccccc2)cc1)c1ccc(C(Nc2ccc(/N=N/c3ccccc3)cc2)P(=O)(O)OCC)cc1 (stereo unspecified),20.3 µM (inactive),18.5 µM (inactive),16.5 µM (inactive),26.4 µM (inactive),22.1 µM (inactive),18.6 µM (inactive),16.3 µM (inactive),> 100 µM (inactive),19.2 µM (inactive),19.2 µM (inactive),18.3 µM (inactive),20.4 µM (inactive),19.2 µM (inactive),42.8 µM (inactive),18.2 µM (inactive),17.4 µM (inactive),17.9 µM (inactive),16.6 µM (inactive),19.7,18.3 µM (inactive)
C[C@@H]1C[C@H]2CC[C@H](O2)[C@H](C)C(=O)O[C@@H](C)C[C@@H]2CC[C@@H](O2)[C@@H](C)C(=O)O[C@H](C)C[C@H]2CC[C@H](O2)[C@H](C)C(=O)O[C@@H](C)C[C@@H]2CC[C@@H](O2)[C@@H](C)C(=O)O1,0.36 µM (active),0.319 µM (active),0.256 µM (active),0.242 µM (active),0.292 µM (active),0.211 µM (active),0.295 µM (active),1.43 µM (inactive),1.96 µM (inactive),0.351 µM (active),0.237 µM (active),0.316 µM (active),1.58 µM (inactive),0.136 µM (active),0.245 µM (active),0.338 µM (active),0.199 µM (active),0.154 µM (active),0.646,0.315 µM (active)
O=C(/C=C/c1ccc2c(c1)OCO2)CC(=O)/C=C/c1ccc2c(c1)OCO2,> 100 µM (inactive),> 100 µM (inactive),3.56 µM (inactive),,35.6 µM (inactive),45 µM (inactive),,> 10 µM (inactive),> 10 µM (inactive),> 100 µM (inactive),> 100 µM (inactive),> 10 µM (inactive),76.7 µM (inactive),19.1 µM (inactive),> 100 µM (inactive),> 100 µM (inactive),> 100 µM (inactive),> 100 µM (inactive),> 100,37.5 µM (inactive)
